Data published in a melting point compilation (Tetko et al.; mined from patent text by program, amines drawn as free bases though some values may be those of a salt).

| SMILES | melting point |
| --- | --- |
| COc1ccc(C(=O)Cc2c(Cl)cncc2Cl)c2c(CC(=O)Nc3cccnc3)coc12 | 252 to 255 °C |
| CCOC(=O)C1CN(C)c2nc3cc(F)c(F)cc3cc2C1=O (stereo not drawn) | 188 °C |
| Cc1csc(C)c1N(N)C(=O)CN | 68 to 70 °C |
| C#CCN1CCCc2ccc(OC(=O)NCCCCCCC)cc21 | 54 °C |
| COc1ccc(-c2cccc3c2C(=O)OC(C)(C)O3)cn1 | 160 °C |
| Cc1cc(F)ccc1C(=O)CCCN1CCC(O)(c2cccc(C(F)(F)F)c2)CC1 | 63.5 °C |
| COC(=O)CC(=O)C1CCC2C3CCC4CC(O)CCC4(C)C3C(=O)CC12C (stereo not drawn) | 150 to 152 °C |
| CC(O)=C1C(c2ccccc2)=C(c2ccc(S(C)(=O)=O)cc2)C1(Cl)Cl | 194 to 195 °C |
| CCC(=C(c1ccc(O)cc1)c1ccc(O)cc1)c1ccc(/C=C/C(=O)O)cc1 | 280 to 281 °C |
| NS(=O)(=O)c1ccc(-n2nc(C(F)(F)F)cc2-c2ccc([N+](=O)[O-])cc2)cc1 | 173 to 175 °C |
| Cc1ccc(C(=O)N(C(C)C)C(C)C)c(C(=O)O)c1F | 147 to 149 °C |
| CCOC(=O)c1cnc2nn(C)cc2c1N1CCN(C)CC1 | 142 to 143 °C |
| CN1C(=O)CN=C(c2ccccc2F)c2c1ccc(N)c2Cl | 126 °C |
| CC(=O)N1CCc2cc(S(=O)(=O)n3c(CCCC(=O)O)cc4cc(Cl)ccc43)ccc21 | 115 to 117 °C |
| CCn1c(=O)c2[nH]c(C(C)C)nc2n(Cc2ccc(Cl)cc2)c1=O | 221 to 222 °C |
| COC(=O)c1cc(F)ccc1Nc1ccnc2c(C(F)(F)F)cccc12 | 166 °C |
| COc1cc2ncnc(N3CCc4cc5[nH]ccc5cc43)c2cc1OC | 245 to 252 °C |
| CCC(=C(c1ccccc1)c1ccc(C2CC2C(=O)N(CC)CC)cc1)c1ccccc1 (stereo not drawn) | 42 to 44 °C |
| CC(C)c1cccc(C(C)C)c1NC(=O)C(Cc1ccc(OCc2ccccc2)cc1)NCc1ccccc1 (stereo not drawn) | 127 to 129 °C |
| COC(=O)C(C)(C)OCc1cc2nc(Cl)ccc2n1S(=O)(=O)c1ccc(C(C)C)cc1 | 120 °C |
| N#Cc1nn(-c2c(Cl)cc(C(F)(F)F)cc2Cl)c(N)c1-c1ccccc1F | 197 °C |
| O=C(CNC(=O)OCc1ccccc1)Nn1cccc1C(=O)c1ccccc1 | 96 to 98 °C |
| COc1ccc(N2C(=O)Cc3ccccc32)cc1Cl | 165 to 167 °C |
| Cc1cc(C#C[Si](C(C)C)(C(C)C)C(C)C)n(-c2ccc([N+](=O)[O-])cc2)n1 | 71 to 73 °C |
| COc1ccc(C2Sc3c(ccc4ccccc34)N(CCN(C)C)C(=O)C2OC(=O)c2ccccc2O)cc1 (stereo not drawn) | 150 to 151 °C |

| SMILES | melting point |
| --- | --- |
| NC1(c2cccc(Br)c2)CC1 | 135 to 137 °C |
| CCc1cc2cc(OC)ccc2[nH]1 | 49 to 50 °C |
| CCCc1c(C(=O)OCC)nc2c(CCC)c3oc(C(=O)OCC)cc(=O)c3cc2c1Cl | 145 to 147 °C |
| CNc1nc(C)c(C)cc1NC(=O)N1CCN(c2cc(OC)cc(OC)c2)CC1 | 150 to 151 °C |
| COC(=O)c1ccc(N2C(=O)C(O)=C(C(=O)c3ccc(C)cc3)C2c2ccc(C(C)C)cc2)nc1 (stereo not drawn) | 264 to 266 °C |
| Cc1sc(-c2ccccc2)nc1-c1ccc(Cl)cc1 | 90 to 91 °C |
| O=C1NC(=NC2CCCCC2)C(c2ccc(Br)cc2)N1c1ccc2[nH]cnc2c1 (stereo not drawn) | 205 °C |
| CCC1(C2CCCC2)Cc2cc(OCCCC(=O)O)c(Cl)c(Cl)c2C1=O (stereo not drawn) | 189 to 193 °C |
| Cc1ccc(Oc2ccc(C(=O)c3ccc(Oc4ccc(C)c(C)c4)cc3)cc2)cc1C | 68 to 69 °C |
| COc1ccc(C2C(C(=O)c3ccc(C)cc3)=C(O)C(=O)N2c2ccc(C)nn2)cc1 (stereo not drawn) | 266 °C |
| CC(C)[C@H](NC(=O)OCc1ccccc1)C(=O)NC(Cc1ccccc1)C(O)C(Cc1ccccc1)NC(=O)[C@@H](NC(=O)OCc1ccccn1)C(C)C (stereo partly drawn) | 194 to 195 °C |
| O=S(=O)(Cc1ccccc1)Nc1ncc(-c2ccccc2)nc1Cc1ccccc1 | 207 to 208 °C |
| CC(=O)N1c2cc([N+](=O)[O-])ccc2[C@H]2Cc3ccc([N+](=O)[O-])cc3[C@H]21 (relative stereo) | 264 to 266 °C |
| COc1ccc(C2=NN(C3CCN(S(=O)(=O)c4ccccc4C)CC3)C(=O)C(C)(C)C2)cc1OC | 132 to 133 °C |
| Cc1cc(C)nc(NC(=O)NS(=O)(=O)c2cccc3c2OC(C)(C)C3)n1 | 203 to 206 °C |
| OC(Cn1ncc2c(Br)ncnc21)c1ccccc1 (stereo not drawn) | 146 to 147 °C |
| CC(=O)Nc1ccc(Cl)cc1C(=O)c1ccccc1Cl | 108 to 110 °C |
| COCCOC(=O)NCC(C)(C)N | 94 to 96 °C |
| COP(=O)(O)CNc1cc(Cl)c(Oc2ccc(O)c3ccccc23)c(Cl)c1 | 85 to 87 °C |
| COCCOC/C(=C\S(=O)(=O)c1ccc(C)cc1)C(=O)OC(C)(C)C | 40 to 41 °C |
| CCCc1nc2c(N)nc(C)c(C)c2n1Cc1cc(-c2ccc(F)cc2)no1 | 227 to 229 °C |
| NC(=O)c1cccc(-c2ccc(F)c3cc(Cc4cc(F)cc(Cl)c4)sc23)c1 | 168 to 169 °C |
| CS(=O)(=O)c1ccc(Oc2c(-c3ccc(S(C)(=O)=O)cc3)cnn(CC(F)(F)F)c2=O)cc1 | 212 to 213 °C |
| O=[N+]([O-])c1cc(-c2ccncc2)ccc1Cl | 110 to 111 °C |
| O=C(O)COc1nnc(C(Cl)(Cl)Cl)s1 | 100 °C |

| SMILES | melting point |
| --- | --- |
| O=c1ccc2c(-n3cccn3)nccc2[nH]1 | > 300 °C |
| COc1ccc(F)cc1Oc1c(NS(=O)(=O)c2ccc(C(C)(C)C)cc2)ncnc1OC[C@@H]1COC(C)(C)O1 | > 86 °C |
| CCCCCCCCCCCCCCCCCC(O)c1ccc(C2=NC(C)(C)CO2)cc1 (stereo not drawn) | 72 to 75 °C |
| Cc1nnc2n1-c1ccc(Br)cc1C(c1ccccc1)=NC2 | 268 to 270 °C |
| COc1ccc(C(=Cn2cc[nH]c2=O)CC(=O)O)cc1OC1CCCC1 | 194 °C |
| O=C(c1cc2ccc(O)cc2[nH]1)N1CCC(Cc2ccc(F)cc2)CC1 | 180 to 182 °C |
| CSc1ncc(Cl)cc1C#N | 147 to 149 °C |
| CN(C)c1ccc(F)c(C#N)c1 | 72 to 72.5 °C |
| O=C(O)CCCCCCC1C(=O)CCC1=O | 131 to 141 °C |
| O=C(O)C(c1ccccc1)N1C(=O)c2cc(Cl)c(Cl)cc2C1=O (stereo not drawn) | 228 to 232 °C |
| CCc1ccccc1Cn1cc(-c2cn(C3CC(O)C(CO)O3)c(=O)[nH]c2=O)nn1 (stereo not drawn) | 169 to 172 °C |
| COC(=O)c1ccccc1Oc1ccccc1[N+](=O)[O-] | 49 to 50 °C |
| Cc1ccc([N+](=O)[O-])cc1Nc1nccc(-c2cccnc2)n1 | 186 to 188 °C |
| CC(C)(C)OC(=O)[C@@H](C(N)c1ccccc1)[C@@H](O)C[C@@H](Cc1ccccc1)c1ncc2n1C(O)C(C)(C)C2=O (stereo partly drawn) | 88 to 90 °C |
| COc1cc(CC(=O)CCNCCOc2ccc(C(=O)O)cc2OC)ccc1NC(=O)Nc1ccccc1C | 115 to 118 °C |
| CCCc1c(OCCCS(=O)(=O)c2ccc(CC(=O)OC)cn2)ccc(C(C)=O)c1O | 124 to 126 °C |
| C[C@@H]1N(c2ccc(C#N)c(C(F)(F)F)c2)C(=O)C[C@@]1(O)C1CC1 | 84 to 90 °C |
| CCCCCCCCCCCCOc1ccc2c(c1)C(CCNC(=O)CCC)CC2 (stereo not drawn) | 68 to 69 °C |
| COC(=O)[C@H](CC1=CCC(N)(O)C=C1)NC(=O)c1ccccc1 (stereo partly drawn) | 170 °C |
| CC(C)C(O)C(O)C(O)C(CC1CCCCC1)NC(=O)OC(C)(C)C (stereo not drawn) | 151 to 152 °C |
| NC(=S)c1cc2c(cn1)[nH]c1ccccc12 | 274 to 276 °C |
| COC(=O)C#CCCc1c(C)c(OC)c(C)c(C)c1OC | 71 to 72 °C |
| Cc1nc2[nH]c(=O)[nH]c2cc1-c1ccc(NC(=O)C(F)(F)F)cc1 | > 300 °C |
| CC1(Br)CCCNC1=O (stereo not drawn) | 107 to 109 °C |
| O=c1c(Cl)c(OCc2ccc(F)cc2F)ccn1Cc1ccc2c(c1)CCN2 | 137 to 139 °C |

| SMILES | melting point |
| --- | --- |
| NC(=O)N(O)Cc1ccc(C(O)C#Cc2ccsc2)cc1 (stereo not drawn) | 117 to 119 °C |
| CCOC1(C)Oc2cccc(OC(=O)NC)c2O1 (stereo not drawn) | 97 to 98.5 °C |
| CCCc1nc2c(N)nc3cc(OCCCn4cccc4)ccc3c2s1 | 152 to 154 °C |
| O=C(C=Cc1cccc(Cl)c1)c1ccccc1O | 108 °C |
| COc1cc(C)c2c(c1)[C@@H]1c3ccccc3N[C@@H]1C2 (relative stereo) | 104 °C |
| Nc1cc(C(=O)O)cc(S(N)(=O)=O)c1Oc1ccc(OCc2ccccc2)cc1 | 264 to 265 °C |
| CC(C)(C)OC(=O)Cn1c(-c2ccccn2)nc2cccnc21 | 124 to 126 °C |
| O=C1N(CC2COCCO2)c2ccccc2C12COc1cc3c(cc12)OCCCO3 (stereo not drawn) | 137 to 139 °C |
| CN(C)CCCOc1ccc(C[C@H](NC(=O)[C@@H]2CCCN2S(=O)(=O)c2cccs2)C(=O)O)cc1 | > 200 °C |
| CN1CCN(S(=O)(=O)c2ccc(O)cc2)CC1 | 225 to 227 °C |
| C[C@H]([C@](O)(Cn1cncn1)c1ccc(F)cc1F)S(=O)(=O)CC(N)=O | 184 to 185 °C |
| NC(=O)Nc1ccc(O)cc1 | 96.3 to 98.3 °C |
| O=C(c1ccc(F)cc1)N1CCC[C@H](c2noc(Cc3ccccc3)n2)C1 | 75 °C |
| CCOc1cc(-c2cccc(C(=O)NCc3cccc4c3C(=O)N(C3CCC(=O)NC3=O)C4=O)n2)ccc1OC (stereo not drawn) | 196 to 198 °C |
| CN(C)c1ccc(N(c2ccccc2)C2(c3ccc(N(C)C)cc3)OC(=O)c3ccccc32)cc1 (stereo not drawn) | 163 to 166 °C |
| CCN(CC)CCNC(=O)c1cc(Cl)c(N)cc1OCC(=O)Cc1ccccc1 | 138 to 139 °C |
| CNC(=O)[C@@H](C[C@H](O)[C@H](CC1CCCCC1)NC(=O)[C@H](Cc1cscn1)NC(=O)OC(C)(C)C)C(C)(C)O | 203 to 205 °C |
| COc1cc2c(c(-c3cc(Cl)ccc3Cl)c1)OC(CN)C2 (stereo not drawn) | 140 to 142 °C |
| CS(=O)(=O)c1ccc(C(=O)O)c(C(F)(F)F)c1F | 250 to 252 °C |
| Fc1ccc2[nH]cc(C3=CCN(CC4COc5ccc6[nH]c(C(F)(F)F)nc6c5O4)CC3)c2c1 (stereo not drawn) | 236 to 238 °C |
| C[C@@H]1CN(CCCn2c3ccccc3c3ccccc32)C[C@H](C)N1 | 107 to 109 °C |
| CNC(=O)c1cccc(NC(=O)Cc2cccc(Cl)c2)c1 | 165 to 166 °C |
| CC1(C)OC(=O)C(=CSCc2cccs2)C(=O)O1 | 109 to 111 °C |
